Tests used:
PBMCs = test: PBMC assay, IL-6 release (HTRF); format: cell-based; settings: PBMCs from healthy donors, overnight, IL-6 induction by HTRF, average of quadruplicate
Description: Whole peripheral blood was obtained from healthy donors. PBMCs were isolated from peripheral blood by density gradient centrifugation. […] The plasma layer containing PBMCs was poured into a new tube and washed twice. Isolated PBMCs were either used fresh or thawed from previously frozen. 1×10^5 PBMCs were cultured with titrating concentrations of compounds of Formula I overnight followed by assaying for cytokines by homogeneous time resolved fluorescence (HTRF).

TLR7 = target: T1, TLR7 (Homo sapiens, UniProt Q9NYK1); test: Reporter gene assay, HEK-Blue TLR7 reporter cells (SEAP)
T1 sequence (Q9NYK1 27-1049): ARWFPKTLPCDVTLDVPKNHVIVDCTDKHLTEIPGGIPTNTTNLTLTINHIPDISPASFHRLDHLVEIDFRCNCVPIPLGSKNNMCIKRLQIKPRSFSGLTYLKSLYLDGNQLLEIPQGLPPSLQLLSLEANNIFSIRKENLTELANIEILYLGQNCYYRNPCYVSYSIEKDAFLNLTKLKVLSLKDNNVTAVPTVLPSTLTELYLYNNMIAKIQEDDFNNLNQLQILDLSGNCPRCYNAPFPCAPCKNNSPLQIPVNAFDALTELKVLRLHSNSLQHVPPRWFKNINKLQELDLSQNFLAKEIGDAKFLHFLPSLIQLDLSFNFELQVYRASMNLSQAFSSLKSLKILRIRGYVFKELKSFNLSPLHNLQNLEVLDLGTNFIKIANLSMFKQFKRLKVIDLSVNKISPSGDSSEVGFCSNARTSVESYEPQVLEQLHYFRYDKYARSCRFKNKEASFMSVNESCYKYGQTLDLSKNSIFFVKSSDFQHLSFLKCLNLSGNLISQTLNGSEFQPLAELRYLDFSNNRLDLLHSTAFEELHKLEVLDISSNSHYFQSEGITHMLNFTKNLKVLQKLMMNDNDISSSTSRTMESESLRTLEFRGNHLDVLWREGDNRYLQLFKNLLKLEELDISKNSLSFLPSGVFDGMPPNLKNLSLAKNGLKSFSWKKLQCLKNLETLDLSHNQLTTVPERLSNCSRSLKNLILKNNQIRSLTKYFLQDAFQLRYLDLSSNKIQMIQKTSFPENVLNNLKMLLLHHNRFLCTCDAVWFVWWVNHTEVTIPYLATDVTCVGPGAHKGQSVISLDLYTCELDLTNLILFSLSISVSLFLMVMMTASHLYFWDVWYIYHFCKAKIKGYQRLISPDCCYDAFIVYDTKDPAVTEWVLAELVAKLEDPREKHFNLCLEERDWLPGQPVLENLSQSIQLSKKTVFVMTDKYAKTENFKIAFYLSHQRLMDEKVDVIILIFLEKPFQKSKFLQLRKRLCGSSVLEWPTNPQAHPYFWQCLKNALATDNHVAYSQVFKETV
Description: (§1) 3×10^4 HEK-Blue™ TLR7 or 3×10^4 TLR8 reporter cells (InvivoGen, San Diego, CA) were treated with titrated (4-fold) amounts of test compound. […] Cells were incubated overnight at 37° C. and 5% CO2, then absorbance (620 and 655 nm) was read on a Synergy™ H1 microplate reader.

TLR8 = target: T2, TLR8 (Homo sapiens, UniProt Q9NR97); test: Reporter gene assay, HEK-Blue TLR8 reporter cells (SEAP)
T2 sequence (Q9NR97 27-1041): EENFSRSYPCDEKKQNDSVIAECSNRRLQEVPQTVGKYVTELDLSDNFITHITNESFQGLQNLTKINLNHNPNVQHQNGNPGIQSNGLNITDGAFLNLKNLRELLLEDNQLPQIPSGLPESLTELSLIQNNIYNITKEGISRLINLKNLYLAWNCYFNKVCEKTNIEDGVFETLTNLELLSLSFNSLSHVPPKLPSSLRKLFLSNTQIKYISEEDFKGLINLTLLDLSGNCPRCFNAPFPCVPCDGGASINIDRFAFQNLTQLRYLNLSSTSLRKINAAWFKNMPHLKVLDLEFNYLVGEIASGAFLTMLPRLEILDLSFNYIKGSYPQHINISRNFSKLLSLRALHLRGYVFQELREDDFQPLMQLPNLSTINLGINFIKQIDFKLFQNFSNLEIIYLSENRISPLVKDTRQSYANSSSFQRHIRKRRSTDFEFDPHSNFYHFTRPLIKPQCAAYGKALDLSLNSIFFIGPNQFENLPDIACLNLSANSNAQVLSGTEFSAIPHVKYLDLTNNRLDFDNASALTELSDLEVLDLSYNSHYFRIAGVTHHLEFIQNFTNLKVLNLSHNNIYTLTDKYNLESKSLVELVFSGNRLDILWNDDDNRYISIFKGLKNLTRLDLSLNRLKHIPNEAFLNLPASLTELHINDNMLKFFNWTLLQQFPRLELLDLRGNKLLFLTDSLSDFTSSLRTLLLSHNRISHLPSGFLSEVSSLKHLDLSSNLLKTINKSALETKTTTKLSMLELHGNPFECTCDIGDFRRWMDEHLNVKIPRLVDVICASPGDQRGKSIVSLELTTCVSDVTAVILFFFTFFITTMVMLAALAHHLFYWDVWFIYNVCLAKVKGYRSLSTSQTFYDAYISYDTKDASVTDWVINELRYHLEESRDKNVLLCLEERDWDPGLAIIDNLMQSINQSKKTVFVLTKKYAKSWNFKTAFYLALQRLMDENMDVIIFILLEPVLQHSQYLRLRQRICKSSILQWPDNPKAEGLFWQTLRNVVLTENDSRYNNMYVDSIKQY
Description: as §1

| Compound | EC50 (PBMCs) | EC50 (TLR7) | EC50 (TLR8) |
| --- | --- | --- | --- |
| CCCCc1nc2c(N)nc3ccsc3c2n1Cc1cccc(CNCCCCCO)c1 [Compound 203, 5-((3-((4-amino-2-butyl-1H-imidazo[4,5-d]thieno[3,2-b]pyridin-1-yl)methyl)benzyl)amino)pentan-1-ol] | 0.16 µM | 0.29 µM | 0.12 µM |
| CCCCc1nc2c(N)nc3ccsc3c2n1Cc1cccc(CNCc2ccc(CO)cc2)c1 [Compound 204, (4-(((3-((4-amino-2-butyl-1H-imidazo[4,5-d]thieno[3,2-b]pyridin-1-yl)methyl)benzyl)amino)methyl)phenyl)methanol] | 0.2 µM | 0.068 µM | 0.31 µM |
| CCCCc1nc2c(N)nc3ccsc3c2n1Cc1cccc(CNCC(C)(C)O)c1 [Compound 205, 1-((3-((4-amino-2-butyl-1H-imidazo[4,5-d]thieno[3,2-b]pyridin-1-yl)methyl)benzyl)amino)-2-methylpropan-2-ol] | 0.16 µM | 0.11 µM | 0.19 µM |
| CCCCc1nc2c(N)nc3ccsc3c2n1Cc1cccc(CNN)c1 [Compound 206, 2-butyl-1-(3-(hydrazineylmethyl)benzyl)-1H-imidazo[4,5-d]thieno[3,2-b]pyridin-4-amine] | > 1 µM | 0.28 µM | > 1 µM |
| CCCCc1nc2c(N)nc3ccsc3c2n1Cc1cccc(CO)c1 [Compound 207, (3-((4-amino-2-butyl-1H-imidazo[4,5-d]thieno[3,2-b]pyridin-1-yl)methyl)phenyl)methanol] | > 1 µM | 0.48 µM | > 1 µM |
| CCCCc1nc2c(N)nc3ccsc3c2n1Cc1cccc(CN2CCNCC2)c1 [Compound 214, 2-butyl-1-(3-(piperazin-1-ylmethyl)benzyl)-1H-imidazo[4,5-d]thieno[3,2-b]pyridin-4-amine] | 0.75 µM | 0.063 µM | > 1 µM |
| CCCCc1nc2c(N)nc3ccsc3c2n1Cc1ccccc1CNCCCN1CCN(CCCN)CC1 [Compound 215, 1-(2-(((3-(4-(3-aminopropyl)piperazin-1-yl)propyl)amino)methyl)benzyl)-2-butyl-1H-imidazo[4,5-d]thieno[3,2-b]pyridin-4-amine] | > 1 µM | > 1 µM | > 1 µM |
| CCCCc1nc2c(N)nc3ccsc3c2n1Cc1ccccc1CN [Compound 216, 1-(2-(aminomethyl)benzyl)-2-butyl-1H-imidazo[4,5-d]thieno[3,2-b]pyridin-4-amine] | > 1 µM | > 1 µM | > 1 µM |
| CCCCc1nc2c(N)nc3ccsc3c2n1Cc1ccccc1CN1CCN(C(=O)OC(C)(C)C)CC1 [Compound 217, tert-butyl 4-(2-((4-amino-2-butyl-1H-imidazo[4,5-d]thieno[3,2-b]pyridin-1-yl)methyl)benzyl)piperazine-1-carboxylate] | > 1 µM | > 1 µM | > 1 µM |
| CCCCc1nc2c(N)nc3ccsc3c2n1Cc1ccccc1CN1CCNCC1 [Compound 218, 2-butyl-1-(2-(piperazin-1-ylmethyl)benzyl)-1H-imidazo[4,5-d]thieno[3,2-b]pyridin-4-amine] | > 1 µM | > 1 µM | > 1 µM |
| CCCCc1nc2c(N)nc3ccsc3c2n1Cc1ccccc1CN1CCC(c2ccncc2)CC1 [Compound 219, 2-butyl-1-(2-((4-(pyridin-4-yl)piperidin-1-yl)methyl)benzyl)-1H-imidazo[4,5-d]thieno[3,2-b]pyridin-4-amine] | > 1 µM | > 1 µM | > 1 µM |
| CCCCc1nc2c(N)nc3ccsc3c2n1Cc1ccccc1CNCc1cc[nH]c1 [Compound 220, 1-(2-((((1H-pyrrol-3-yl)methyl)amino)methyl)benzyl)-2-butyl-1H-imidazo[4,5-d]thieno [3,2-b]pyridin-4-amine] | > 1 µM | > 1 µM | > 1 µM |
| CCCCc1nc2c(N)nc3ccsc3c2n1Cc1ccccc1CN(CC)CC [Compound 221, 2-butyl-1-(2-((diethylamino)methyl)benzyl)-1H-imidazo[4,5-d]thieno[3,2-b]pyridin-4-amine] | > 1 µM | > 1 µM | > 1 µM |
| CCCCc1nc2c(N)nc3ccsc3c2n1Cc1ccccc1CN1CCN(CCN2CCOCC2)CC1 [Compound 222, 2-butyl-1-(2-((4-(2-morpholinoethyl)piperazin-1-yl)methyl)benzyl)-1H-imidazo[4,5-d]thieno[3,2-b]pyridin-4-amine] | > 1 µM | > 1 µM | > 1 µM |
| CCCCc1nc2c(N)nc3ccsc3c2n1Cc1ccccc1CNCCCCCO [Compound 223] | > 1 µM | > 1 µM | > 1 µM |
| CCCCc1nc2c(N)nc3ccsc3c2n1Cc1ccccc1CNCc1ccc(CO)cc1 [Compound 224, (4-(((2-((4-amino-2-butyl-1H-imidazo[4,5-d]thieno[3,2-b]pyridin-1-yl)methyl)benzyl)amino)methyl)phenyl)methanol] | > 1 µM | > 1 µM | > 1 µM |
| CCCCc1nc2c(N)nc3ccsc3c2n1Cc1ccccc1CNCC(C)(C)O [Compound 225, 1-((2-((4-amino-2-butyl-1H-imidazo[4,5-d]thieno[3,2-b]pyridin-1-yl)methyl)benzyl)amino)-2-methylpropan-2-ol] | > 1 µM | > 1 µM | > 1 µM |
| CCCCc1nc2c(N)nc3ccsc3c2n1Cc1nc(CO)cs1 [Compound 228, (2-((4-amino-2-butyl-1H-imidazo[4,5-d]thieno[3,2-b]pyridin-1-yl)methyl)thiazol-4-yl)methanol] | > 1 µM | 0.22 µM | > 1 µM |
| CCCCc1nc2c(N)nc3ccsc3c2n1Cc1cccc(Cn2ccnc2)c1 [Compound 229, 1-(3-((1H-imidazol-1-yl)methyl)benzyl)-2-butyl-1H-imidazo[4,5-d]thieno[3,2-b]pyridin-4-amine] | > 1 µM | 0.42 µM | > 1 µM |
| CCCCc1nc2c(N)nc3ccsc3c2n1Cc1nc(CNCc2cc[nH]c2)cs1 [Compound 231, 1-((4-((((1H-pyrrol-3-yl)methyl)amino)methyl)thiazol-2-yl)methyl)-2-butyl-1H-imidazo[4,5-d]thieno[3,2-b]pyridin-4-amine] | 0.92 µM | 0.11 µM | 0.58 µM |
| CCCCc1nc2c(N)nc3ccsc3c2n1Cc1nc(CN(CC)CC)cs1 [Compound 233, 2-butyl-1-((4-((diethylamino)methyl)thiazol-2-yl)methyl)-1H-imidazo[4,5-d]thieno[3,2-b]pyridin-4-amine] | 0.63 µM | 0.14 µM | 0.88 µM |

Source: patent US20250179088A9 (ZYMEWORKS BC INC., priority 2020, published 2025)
